How the values were obtained:
[1] = Photostability under UV exposure; format: physicochemical; settings: Tableau 1; for Perte d'activité (%): UV exposure λ 300 nm, P 8.32 W/m^2, one hour
Excerpt: La stabilité des composés 1 à 7 aux UV a été étudiée par soumission à une exposition (λ : 300 nm, P : 8.32 W/m^2) pendant une heure.
L'Avobenzone a été utilisée comme molécule de référence. Cette molécule est connue pour être […] sous exposition UV, ce qui n'est pas du tout le cas d'autres composés bio-sourcés.
La photostabilité des composés 8 à 11 a également été étudiée, de manière identique au test appliqué aux composés 1 à 7. Les résultats obtenus sont présentés dans le Tableau 2. […] Cette méthodologie a été appliquée à l'ensemble des molécules décrites ci-dessus. Tableau 2 : Stabilité des composés 8 à 11 soumis à une exposition aux UV.

[2] = UV-Vis absorption spectrum (anti-UVA and blue light properties); format: physicochemical; parameters: λmax: unit not given here; settings: Tableau 1
Excerpt: Un spectre UV-Vis a été réalisé dans l'éthanol à 10^-5 mol/L pour les composés 1 à 7, qui sont des dérivés furaniques de l'acide de Medrum. L'Avobenzone, une molécule très largement utilisée comme filtre UVA dans les crèmes solaires, a été utilisée en tant que référence.
Cette méthodologie a été employée pour évaluer les propriétés anti-UV des composés 8 à 11, qui sont des dérivés phénoliques de l'acide de Medrum, des composés 12 à 15 qui sont des dérivés pyrroliques de l'acide de Meldrum, des composés 16 à 18 qui sont des dérivés vinylphénol de l'acide de Meldrum, le composé 19 qui est un dérivé vinylfurane de l'acide de Meldrum.

[3] = target: T1, ERα (récepteur œstrogène alpha) (Homo sapiens, UniProt P03372); assay: Endocrine system: receptor activity in presence of compound (agonist effect); format: cell-based; settings: Figure 6, C = 10 µM; even at the highest concentrations
T1 sequence (P03372 1-595): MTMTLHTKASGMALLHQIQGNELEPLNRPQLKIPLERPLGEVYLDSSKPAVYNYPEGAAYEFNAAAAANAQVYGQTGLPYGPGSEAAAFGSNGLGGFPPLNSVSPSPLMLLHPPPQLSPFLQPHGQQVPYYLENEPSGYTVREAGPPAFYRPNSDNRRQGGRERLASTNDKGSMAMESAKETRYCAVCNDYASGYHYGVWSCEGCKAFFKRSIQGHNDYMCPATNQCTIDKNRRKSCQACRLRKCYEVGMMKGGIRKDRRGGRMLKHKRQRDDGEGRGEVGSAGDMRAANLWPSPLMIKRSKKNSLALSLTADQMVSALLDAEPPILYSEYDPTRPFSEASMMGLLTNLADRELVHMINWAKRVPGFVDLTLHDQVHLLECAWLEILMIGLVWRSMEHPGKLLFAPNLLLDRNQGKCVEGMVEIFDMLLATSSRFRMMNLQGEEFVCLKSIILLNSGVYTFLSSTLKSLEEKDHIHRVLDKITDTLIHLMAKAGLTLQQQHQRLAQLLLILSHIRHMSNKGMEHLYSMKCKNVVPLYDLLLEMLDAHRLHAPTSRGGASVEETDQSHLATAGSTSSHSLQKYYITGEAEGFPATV
Excerpt: (§1) L'effet des composés 1 et 4 sur le système endocrinien a été évalué pour leurs propriétés agonistes et antagonistes sur différents récepteurs : ERα (récepteur œstrogène alpha), AR (récepteur des androgènes) et PXR (pregnane X receptor). Un premier test consiste à étudier l'activité des récepteurs en présence du composé 1 ou 4 (effet agoniste). […] Un second test vise à l'étude de l'activité des récepteurs en présence du composé 1 ou 4 et d'une molécule de référence pour chaque récepteur (effet antagoniste).

[4] = target: T2, AR (récepteur des androgènes) (Homo sapiens, UniProt P10275); assay: as above; format: cell-based; settings: Figure 6, C = 10 µM; even at the highest concentrations
T2 sequence (P10275 1-920): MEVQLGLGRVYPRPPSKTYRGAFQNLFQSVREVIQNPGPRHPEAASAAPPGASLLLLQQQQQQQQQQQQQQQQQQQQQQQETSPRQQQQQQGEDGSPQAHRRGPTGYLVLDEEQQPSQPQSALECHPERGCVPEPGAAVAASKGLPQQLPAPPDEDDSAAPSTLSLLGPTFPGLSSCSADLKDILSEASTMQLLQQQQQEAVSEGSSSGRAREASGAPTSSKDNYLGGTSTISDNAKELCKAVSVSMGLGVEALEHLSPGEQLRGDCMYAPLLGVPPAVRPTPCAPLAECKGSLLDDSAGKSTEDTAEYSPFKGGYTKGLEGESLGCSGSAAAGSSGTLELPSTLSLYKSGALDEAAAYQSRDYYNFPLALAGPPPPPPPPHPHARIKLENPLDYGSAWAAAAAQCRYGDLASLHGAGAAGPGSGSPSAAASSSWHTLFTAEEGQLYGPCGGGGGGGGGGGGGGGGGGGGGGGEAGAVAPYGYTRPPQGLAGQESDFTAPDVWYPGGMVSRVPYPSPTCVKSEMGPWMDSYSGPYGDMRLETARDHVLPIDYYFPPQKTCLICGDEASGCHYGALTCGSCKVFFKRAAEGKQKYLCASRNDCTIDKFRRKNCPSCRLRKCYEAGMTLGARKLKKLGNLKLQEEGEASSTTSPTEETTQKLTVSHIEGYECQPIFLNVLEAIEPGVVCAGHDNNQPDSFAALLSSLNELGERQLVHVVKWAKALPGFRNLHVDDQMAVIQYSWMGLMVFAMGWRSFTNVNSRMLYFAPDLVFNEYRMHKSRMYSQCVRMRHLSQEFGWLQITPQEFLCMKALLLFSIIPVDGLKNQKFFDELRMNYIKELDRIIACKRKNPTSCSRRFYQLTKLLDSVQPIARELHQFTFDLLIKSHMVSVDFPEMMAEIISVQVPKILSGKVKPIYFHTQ
Excerpt: as §1

[5] = target: T3, PXR (pregnane X receptor) (Homo sapiens, UniProt O75469); assay: as above; format: cell-based; settings: Figure 6, C = 10 µM; even at the highest concentrations
T3 sequence (O75469 1-434): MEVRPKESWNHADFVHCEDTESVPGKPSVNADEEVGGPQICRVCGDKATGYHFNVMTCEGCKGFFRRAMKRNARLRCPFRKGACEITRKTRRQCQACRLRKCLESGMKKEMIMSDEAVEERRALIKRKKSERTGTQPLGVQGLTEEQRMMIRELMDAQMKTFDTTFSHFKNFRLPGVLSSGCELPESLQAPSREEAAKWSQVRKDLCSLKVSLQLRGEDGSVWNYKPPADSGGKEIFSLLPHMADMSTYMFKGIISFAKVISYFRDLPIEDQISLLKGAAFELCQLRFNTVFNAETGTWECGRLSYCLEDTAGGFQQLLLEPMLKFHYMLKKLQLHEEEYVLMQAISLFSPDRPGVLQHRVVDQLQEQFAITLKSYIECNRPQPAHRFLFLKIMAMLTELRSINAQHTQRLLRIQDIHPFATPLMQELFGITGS
Excerpt: as §1

[6] = target: T1, ERα (récepteur œstrogène alpha); assay: Endocrine system: receptor activity in presence of compound and reference molecule (antagonist effect); format: cell-based; settings: Figure 7; with reference molecule; even at the highest concentrations
Excerpt: as §1

[7] = target: T2, AR (récepteur des androgènes); assay: as above; format: cell-based; settings: Figure 8; with reference molecule; even at the highest concentrations
Excerpt: as §1

[8] = target: T3, PXR (pregnane X receptor); assay: as above; format: cell-based; settings: Figure 9; with reference molecule; even at the highest concentrations
Excerpt: as §1

Perte d'activité (%) [1]: < 5% | Perte d'activité (%) ([1]; listed as Composé (4)): 3,4% | A (t=0 min) ([1]; absorbance before UV exposure): 0,28814 | λmax [2]: 374
SMILES: CC1(C)OC(=O)C(=Cc2ccc(CO)o2)C(=O)O1 [compound 4, 5-[[5-(Hydroxymethyl)-2-furanyl]methylene]-2,2-dimethyl-1,3-dioxane-4,6-dione]
effet agoniste (activité du récepteur ERα) [3]: n'induisent pas une activité anormale des récepteurs | effet agoniste (activité du récepteur AR) [4]: n'induisent pas une activité anormale des récepteurs | effet agoniste (activité du récepteur PXR) [5]: n'induisent pas une activité anormale des récepteurs | effet antagoniste sur le récepteur ERα [6]: n'empêchent pas l'activité des récepteurs envers les molécules de référence | effet antagoniste sur le récepteur AR [7]: n'empêchent pas l'activité des récepteurs envers les molécules de référence | effet antagoniste sur le récepteur PXR [8]: n'empêchent pas l'activité des récepteurs envers les molécules de référence
